Patent publication US20250163057A1, “DCN-1 MODULATING COMPOUNDS AND METHODS OF USE THEREOF” (Cellarity, Inc., priority 2023, published 2025)

Legend:
fetal hemoglobin protein = assay: HbF HPLC Cell Culture Assay; format: cell-based; details: for EC50: 336 h, HbF induction, Day 14 of culture; for Hemoglobin HPLC Ymax obs (%): relative to a control compound
Protocol: A Cell Culture Assay was performed to evaluate the ability of compounds to induce fetal hemoglobin in a cell culture. The amount fetal hemoglobin protein induced was measured by HPLC.
Cell culture began on Day −4 (thaw day). Thaw buffer was prepared by sterile filtering 6 mL of Human Serum Albumin and 144 mL of PBS to make sterile 1% I/PBS. Cells were removed from liquid nitrogen storage and mostly thawed in a 37° C. water bath. Once the ice in the cryovials was melted, cells were transferred quickly into a 50 mL conical tube. Cryovial was rinsed once with thaw buffer and buffer was transferred over to the conical tube as well. Next, doubling volumes of thaw buffer was added to the conical and gently swirled for ˜30 seconds to one minute (for example: 2 mL was added and swirled, then 4 mL, then 8 mL, and so on) until the volume in the conical is 32 mL. Cells and buffer were centrifuged at 300G for 8 minutes, and the supernatant was aspirated. Another 32 mL of thaw buffer was added slowly, swirling the tube. The tube was again centrifuged at 300G for 8 minutes and the supernatant was aspirated. Cells were counted by resuspending in 1 mL of expansion media and counting with AOPI to determine the concentration of cells/mL.
On day 2, Passage & Treatment Day, each cell culture well was counted. Next fresh CD34 Expansion Media was made which contained StemSpan SFEM, CC100 and TPO all from StemCell technologies. Appropriate volume of cells was collected, centrifuged at 300 g and resuspended in fresh media. Cells were plated in treatment format at a density of 200,000 cells/ml, 25,000 cells/well. Finally, they were treated with test compounds as well as positive and negative controls.
On Days 0, 3 & 5 the same process was carried out. First, each cell culture well was counted. Next Phase 1 Erythroid Differentiation Media was freshly made, which contained StemSpan SFEM, 2.5 U/ml EPO, 0.5 mg/ml Holo-TF, 1× Glutamax, 5 μl/ml chemically defined lipid mixture, 10 ng/ml insulin, 50 ng/ml SCF, 10 ng/ml IL-3. Appropriate volume of cells was collected, centrifuged at 300 g and resuspended in fresh media. Cells should now be in fresh wells at a density of 100,000 cells/ml. 60,000 cells, 60,000 cells and 100,000 cells for days 0, 3, 5 respectively. Finally, fresh compound was added to each well at each timepoint (Days 0, 3 & 5).
On Day 7 media and cell culture density changes. Each cell culture well was counted. Next, Phase 2 Erythroid Differentiation Media was freshly made, which contains StemSpan SFEM, 2.5 U/ml EPO, 0.5 mg/ml Holo-TF, 1× Glutamax, 5 μl/ml chemically defined lipid mixture, 10 ng/ml insulin, 50 ng/ml SCF. Appropriate volume of cells was collected, centrifuged at 300 g and resuspended in fresh media. Cells were plated in fresh wells at a density of 500,000 cells/ml, 300,000 cells/well. Finally, fresh compound was added to each well at Day 7 timepoint.
On Day 10 media formulation is once again changed. Each cell culture well was counted. Fresh Phase 3 Erythroid Differentiation Media was made which contains StemSpan SFEM, 2.5 U/ml EPO, 0.5 mg/ml Holo-TF, 1× Glutamax, 5 μl/ml chemically defined lipid mixture, 10 ng/ml insulin. Appropriate volume of cells was collected, centrifuged at 300 g and resuspended in fresh media. Cells were plated in fresh wells at a density of 500,000 cells/ml, 500,000 cells/well. Finally, fresh compound was added to each well at Day 10 timepoint.
On Day 12 the cell density is once again changed. Each cell culture well was counted. Fresh Phase 3 Erythroid Differentiation Media was made. Appropriate volume of cells was collected, centrifuged at 300 g and resuspended in fresh media. Cells were plated in fresh wells at a density of 1,000,000 cells/ml, 1,000,000 cells/well. Finally fresh compound was added to each well.
Day 14 (18th day of experiment) refers to the terminal day of culture. Each cell culture well was counted. Next between 150K and 650K cells were placed in a uniquely labeled 1.5 ml standard tube. […]

[1] = biological target: DCN1 (DCUND1) protein PONY domain (Homo sapiens (Human), UniProt Q96GG9); assay: Off-rate measurement of reversible covalent molecules (jump dilution TR-FRET with Cy5 probe); format: binding; details: for Category: binding mode category from off-rate assay; for residence time: inverse of rate constant K; for residence time / half-life: jump dilution TR-FRET; for koff: jump dilution, Cy5 covalent probe 150 nM, TR-FRET; for half-life: ln(2)/K
Chain of DCN1 (DCUND1) protein PONY domain (Q96GG9 60-248): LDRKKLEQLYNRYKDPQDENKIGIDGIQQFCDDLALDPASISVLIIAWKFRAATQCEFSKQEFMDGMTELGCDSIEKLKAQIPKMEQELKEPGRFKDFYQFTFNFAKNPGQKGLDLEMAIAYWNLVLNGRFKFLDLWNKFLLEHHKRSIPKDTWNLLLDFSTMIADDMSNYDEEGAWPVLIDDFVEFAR

Structure (SMILES)	EC50 (fetal hemoglobin protein) [µM]	Hemoglobin HPLC Ymax obs (%) (fetal hemoglobin protein)	Category [1]	residence time [1] [min]	koff [1] [s⁻¹]	half-life [1] [h]
CCN1C(=O)[C@@H](NC(=O)c2cccc(C(F)(F)F)c2)[C@@H](c2ccc(F)cc2)c2c([C@@H](C)NC#N)nn(-c3ccccc3)c21 [Compound I-73, N-((4S,5S)-3-((R)-1-cyanamidoethyl)-7-ethyl-4-(4-fluorophenyl)-6-oxo-1-phenyl-4,5,6,7-tetrahydro-1H-pyrazolo[3,4-b]pyridin-5-yl)-3-(trifluoromethyl)benzamide]	> 0.2	++ (Hemoglobin HPLC Ymax greater than 65.0 and less than or equal to 100.0)	irreversible covalent			
CCN1C(=O)[C@@H](NC(=O)c2cccc(C(F)(F)F)c2)[C@@H](C2CC2)c2c(C(=O)N3[C@H](C#N)C[C@H]4C[C@H]43)nn(C3CCOCC3)c21 [Compound I-256, N-((4S,5S)-3-((1R,3S,5R)-3-cyano-2-azabicyclo[3.1.0]hexane-2-carbonyl)-4-cyclopropyl-7-ethyl-6-oxo-1-(tetrahydro-2H-pyran-4-yl)-4,5,6,7-tetrahydro-1H-pyrazolo[3,4-b]pyridin-5-yl)-3-(trifluoromethyl)benzamide]	0.05 to 0.2	++ (Hemoglobin HPLC Ymax greater than 65.0 and less than or equal to 100.0)	slow reversible	219	7.96e-05	2.535
CCN1C(=O)[C@@H](NC(=O)c2cccc(C(F)(F)F)c2)[C@@H](c2ccc(F)cc2)c2c(C(=O)N3CCNCC3C#N)nn(C3CCOCC3)c21 (stereo partly drawn) [Compound I-334]	0.05 to 0.2	++ (Hemoglobin HPLC Ymax greater than 65.0 and less than or equal to 100.0)				
CCN1C(=O)[C@@H](NC(=O)c2cccc(C(F)(F)F)c2)[C@@H](c2ccc(F)cc2)c2c(C(=O)N3CCC[C@H]3C#N)nn(C3CCOCC3)c21 [Compound I-350]	≤ 0.05	++ (Hemoglobin HPLC Ymax greater than 65.0 and less than or equal to 100.0)	slow reversible	699	2.64e-05	8.07
CCN1C(=O)[C@@H](NC(=O)c2cccc(C(F)(F)F)c2)[C@@H](C2CC2)c2c(C(=O)N3C[C@H](F)C[C@H]3C#N)nn(C3CCOCC3)c21 [Compound I-372]	0.05 to 0.2	++ (Hemoglobin HPLC Ymax greater than 65.0 and less than or equal to 100.0)				
CCN1C(=O)[C@@H](NC(=O)c2cccc(C(F)(F)F)c2)[C@@H](C2CC2)c2c(C(=O)N3C[C@H](OC)C[C@H]3C#N)nn(C3CCOCC3)c21 [Compound I-377]	0.05 to 0.2	++ (Hemoglobin HPLC Ymax greater than 65.0 and less than or equal to 100.0)				
CCN1C(=O)[C@@H](NC(=O)c2cccc(C(F)(F)F)c2)[C@@H](C2CC2)c2c(C(=O)N3CC[C@H](OC)[C@H]3C#N)nn(C3CCOCC3)c21 [Compound I-418]	≤ 0.05	+++ (Hemoglobin HPLC Ymax greater than 100.0)				
CCN1C(=O)[C@@H](NC(=O)c2cccc(C(F)(F)F)c2)[C@@H](C2CC2)c2c(C(=O)N(C)[C@H](C)C#N)nn(C3CCOCC3)c21 [Compound I-422]	0.05 to 0.2	++ (Hemoglobin HPLC Ymax greater than 65.0 and less than or equal to 100.0)				
CCN1C(=O)[C@@H](NC(=O)c2cccc(C(F)(F)F)c2)[C@@H](C2CCC2)c2c(C(=O)N3CCC[C@H]3C#N)nn(C3CCOCC3)c21 [Compound I-692]	> 0.2	++ (Hemoglobin HPLC Ymax greater than 65.0 and less than or equal to 100.0)				
